From article PMC2654417 (Combinatorial chemistry & high throughput screening, 2008)
Like-named read-outs stand apart in the source and are kept apart here.

Target: T1, glucocorticoid receptor (GR) (Homo sapiens, UniProt P04150)
T1 sequence (P04150 1-777): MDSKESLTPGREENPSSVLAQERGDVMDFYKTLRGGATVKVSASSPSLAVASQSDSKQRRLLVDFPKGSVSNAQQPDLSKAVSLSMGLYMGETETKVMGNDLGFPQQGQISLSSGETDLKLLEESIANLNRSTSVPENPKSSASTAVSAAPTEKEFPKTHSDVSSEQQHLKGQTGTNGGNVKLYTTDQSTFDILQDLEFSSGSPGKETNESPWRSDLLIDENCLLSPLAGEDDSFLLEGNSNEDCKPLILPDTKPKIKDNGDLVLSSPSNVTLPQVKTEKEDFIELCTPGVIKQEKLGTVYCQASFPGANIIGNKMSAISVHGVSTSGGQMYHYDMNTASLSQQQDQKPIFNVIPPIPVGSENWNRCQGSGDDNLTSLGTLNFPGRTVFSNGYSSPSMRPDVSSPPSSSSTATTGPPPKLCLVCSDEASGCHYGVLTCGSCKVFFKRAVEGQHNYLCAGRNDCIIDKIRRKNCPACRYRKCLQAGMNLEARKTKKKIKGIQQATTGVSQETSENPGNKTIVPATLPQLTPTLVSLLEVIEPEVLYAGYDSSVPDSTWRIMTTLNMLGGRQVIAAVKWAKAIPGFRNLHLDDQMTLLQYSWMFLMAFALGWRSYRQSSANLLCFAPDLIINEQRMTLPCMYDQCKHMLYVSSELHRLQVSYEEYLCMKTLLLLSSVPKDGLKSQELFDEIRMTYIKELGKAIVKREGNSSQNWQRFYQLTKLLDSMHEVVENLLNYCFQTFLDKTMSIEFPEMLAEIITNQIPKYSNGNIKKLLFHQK
Test: GR-EFC nuclear translocation assay
Format: cell-based
Details: for qHTS Hill Slope: Hill slope of the qHTS curve fit; for qHTS Max Activity: maximal activity of the qHTS curve, inactive threshold […] (3σ); for EC50: read-out: qEC50; for log qEC50: log10 of qEC50 in M, printed as negative values

[1] = qHTS curve fit, class 4 values are fit defaults
[2] = class 4 values are fit defaults

Compound | qHTS Hill Slope | qHTS Max Activity | EC50 [1] | log qEC50 [2] | qHTS Curve Class | EC50
C[C@H]1C[C@@H]2[C@H]([C@@H](O)C[C@@]3(C)[C@H]2CC[C@]3(O)C(=O)CO)[C@@]2(C)C=CC(=O)C=C12 [NCGC00016330-01] | 0.98 | 63.5 |  |  |  | 
CC[C@H](CC[C@H](C)[C@@H]1CC[C@@H]2[C@H]3CC=C4C[C@@H](O)CC[C@]4(C)[C@H]3CC[C@]21C)C(C)C [NCGC00016331-01] |  |  | > 9 µM |  |  | 
C[C@]12C=CC(=O)C=C1CC[C@@H]1[C@H]3C[C@@H](O)[C@](O)(C(=O)CO)[C@@]3(C)C[C@H](O)[C@]12F [NCGC00016376-01] | 1.15 | 67.5 | 0.0827 µM | −7.082 |  | 
C[C@H]1CC[C@@]2(NC1)O[C@@H]1C[C@H]3[C@@H]4CC=C5C[C@@H](O)CC[C@]5(C)[C@@H]4CC[C@]3(C)[C@@H]1[C@@H]2C [NCGC00016381-01] |  |  | > 9 µM |  |  | 
C[C@@]12CC[C@H](O)C[C@@H]1CC[C@H]1[C@H]2CC[C@@]2(C)[C@@H](C3=CC(=O)OC3)CC[C@]12O [NCGC00016406-01] |  |  | > 9 µM |  |  | 
CC(=O)[C@H]1CC[C@H]2[C@@H]3C=CC4=CC(=O)CC[C@@]4(C)[C@@H]3CC[C@]12C [NCGC00016413-01] |  |  |  |  | 4 (inactive, where activity was below 28.6% (3σ for the present assay)) | > 9 µM
C#C[C@@]1(OC(C)=O)CC[C@@H]2[C@@H]3CCC4=C[C@@H](OC(C)=O)CC[C@H]4[C@H]3CC[C@]21C [NCGC00016417-01] |  |  |  |  | 4 (inactive, where activity was below 28.6% (3σ for the present assay)) | > 9 µM
CC(=O)OCC(=O)[C@@]1(O)CC[C@H]2[C@@H]3CCC4=CC(=O)C=C[C@]4(C)[C@@]3(F)[C@@H](O)C[C@@]21C [NCGC00016433-01] | 0.52 | 80.8 | 0.035 µM | −7.456 |  | 
CC(=O)OCC(=O)[C@@]12OC(C)(C)O[C@@H]1C[C@H]1[C@@H]3C[C@H](F)C4=CC(=O)C=C[C@]4(C)[C@@]3(F)[C@@H](O)C[C@@]12C [NCGC00016436-01] |  | 47.0 | 0.0128 µM | −7.893 |  | 
C[C@@]12CC(=O)[C@H]3[C@@H](CCC4=CC(=O)CC[C@]43C)[C@H]1CCC2=O [NCGC00016440-01] |  |  | > 9 µM |  |  | 
CC(=O)[C@@]1(O)CC[C@H]2[C@@H]3C[C@H](C)C4=CC(=O)C=C[C@]4(C)[C@@]3(F)[C@@H](O)C[C@@]21C [NCGC00016442-01] | 0.63 | 84.0 | 0.00821 µM | −8.086 |  | 
C#C[C@@]1(O)CC[C@@H]2[C@@H]3CCC4=CC(=O)CC[C@@]4(C)[C@H]3CC[C@]21C [NCGC00016444-01] | 0.97 | 15.2 |  |  |  | 
C[C@H](CCC(=O)O)[C@H]1CC[C@@H]2[C@H]3CC[C@H]4C[C@@H](O)CC[C@@]4(C)[C@H]3CC[C@]21C [NCGC00016445-01] |  |  | > 9 µM |  |  | 
C[C@@H]1O[C@@H](O[C@@H]2C=C3CC[C@@H]4[C@H](CC[C@]5(C)[C@@H](c6ccc(=O)oc6)CC[C@]45O)[C@@]3(C)CC2)[C@H](O)[C@H](O)[C@H]1O [NCGC00016447-01] |  |  |  |  | 4 (inactive, where activity was below 28.6% (3σ for the present assay)) | > 9 µM
C=C(C)[C@H]1CC[C@]2(C(=O)O)CC[C@]3(C)[C@@H](CC[C@H]4[C@@]5(C)CC[C@@H](O)C(C)(C)[C@@H]5CC[C@@]43C)[C@H]12 [NCGC00016449-01] |  |  |  |  | 4 (inactive, where activity was below 28.6% (3σ for the present assay)) | > 9 µM
C=C(C)[C@H]1CC[C@]2(CO)CC[C@]3(C)[C@@H](CC[C@H]4[C@@]5(C)CC[C@@H](O)C(C)(C)[C@@H]5CC[C@@]43C)[C@H]12 [NCGC00016450-01] |  |  |  |  | 4 (inactive, where activity was below 28.6% (3σ for the present assay)) | > 9 µM
C[C@]12CC[C@@H]3C(=CCc4cc(O)ccc43)[C@@H]1CCC2=O [NCGC00016451-01] |  |  |  |  | 4 (inactive, where activity was below 28.6% (3σ for the present assay)) | > 9 µM
C[C@H](CCC(=O)NCC(=O)O)[C@H]1CC[C@H]2[C@H]3[C@@H](C[C@@H](O)[C@]12C)[C@]1(C)CC[C@H](O)C[C@@H]1C[C@@H]3O [NCGC00016452-01] |  |  | > 9 µM |  |  | 
CC(=O)OCC(=O)[C@@]1(O)CC[C@@H]2[C@H]3CCC4=CC(=O)CC[C@]4(C)[C@]3(F)[C@@H](O)C[C@@]21C [NCGC00016476-01] | 0.75 | 74.0 |  |  |  | 

Compound | qHTS Hill Slope | qHTS Max Activity | EC50 [1] | log qEC50 [2] | qHTS Curve Class | EC50
C[C@@H]1[C@H]2CC[C@@H]3[C@@H]4CC=C5C[C@@H](N(C)C)CC[C@]5(C)[C@@H]4CC[C@@]32CN1C [NCGC00016502-01] |  |  | > 9 µM |  |  | 
CC(=O)O[C@]1(C(C)=O)CC[C@H]2[C@@H]3C=C(C)C4=CC(=O)CC[C@]4(C)[C@H]3CC[C@@]21C [NCGC00016516-01] | 0.49 | 47.2 | 0.0557 µM | −7.254 |  | 
C[C@@H]1O[C@H](O[C@@H]2CC[C@@]3(C=O)[C@H]4CC[C@@]5(C)[C@@H](C6=CC(=O)OC6)CC[C@@]5(O)[C@@H]4CC[C@]3(O)C2)C[C@H](O)[C@@H]1O [NCGC00016524-01] |  |  | > 9 µM |  |  | 
C#C[C@@]1(O)CC[C@@H]2[C@@H]3CCC4=CC(=O)CC[C@@H]4[C@H]3CC[C@]21CC [NCGC00016540-01] |  |  |  |  | 4 (inactive, where activity was below 28.6% (3σ for the present assay)) | > 9 µM
CC(=O)O[C@H]1CC[C@@]2(C)C(=CC[C@@H]3[C@@H]2CC[C@]2(C)C(=O)CC[C@@H]32)C1 [NCGC00016544-01] |  |  | > 9 µM |  |  | 
CC1(C)O[C@@H]2C[C@H]3[C@@H]4C[C@H](F)C5=CC(=O)CC[C@]5(C)[C@H]4[C@@H](O)C[C@]3(C)[C@]2(C(=O)CO)O1 [NCGC00016586-01] | 0.69 | 104.7 | 0.0188 µM | −7.725 |  | 
C[C@@]12CC[C@H](O)C[C@@H]1CC[C@H]1[C@@H]2C[C@@H](O)[C@]2(C)[C@@H](C3=CC(=O)OC3)CC[C@]12O [NCGC00016591-01] |  |  | > 9 µM |  |  | 
C[C@]12C[C@H]3S[C@H]3C[C@@H]1CC[C@@H]1[C@@H]2CC[C@]2(C)[C@@H](O)CC[C@@H]12 [NCGC00016609-01] |  |  |  |  | 4 (inactive, where activity was below 28.6% (3σ for the present assay)) | > 9 µM
CC(=O)[C@H]1CC[C@H]2[C@@H]3C[C@H](C)C4=CC(=O)CC[C@]4(C)[C@H]3[C@@H](O)C[C@]12C [NCGC00016616-01] | 0.13 | 100.0 | 4.16 µM | −5.381 |  | 
C[C@@]12CC[C@@H]3c4ccc(OS(=O)(=O)O)cc4CC[C@H]3[C@H]1CCC2=O [NCGC00016682-01] |  |  | > 9 µM |  |  | 
CC(=O)O[C@H]1C[C@H]2CC[C@@H]3[C@@H](CC[C@]4(C)[C@H](OC(C)=O)[C@H]([N+]5(C)CCCCC5)C[C@@H]34)[C@]2(C)C[C@H]1[N+]1(C)CCCCC1 [NCGC00016716-01] |  |  | > 9 µM |  |  | 
C#C[C@]1(O)CC[C@@H]2[C@H]3CCC4=Cc5oncc5C[C@]4(C)[C@@H]3CC[C@@]21C [NCGC00016726-01] |  |  |  |  | 4 (inactive, where activity was below 28.6% (3σ for the present assay)) | > 9 µM
CC(=O)OCC(=O)[C@H]1CC[C@H]2[C@@H]3CC[C@H]4C[C@H](O)CC[C@]4(C)[C@H]3C(=O)C[C@]12C [NCGC00016783-01] |  |  | > 9 µM |  |  | 
CC(=O)OCC(=O)[C@@]1(OC(C)=O)[C@H](C)C[C@H]2[C@@H]3C[C@H](F)C4=CC(=O)C=C[C@@]4(C)[C@]3(F)[C@H](O)C[C@@]21C [NCGC00016822-01] | 0.44 | 80.7 | 0.0775 µM | −7.111 |  | 
CCC(=O)[C@@]1(C)[C@H](C)C[C@H]2[C@@H]3CCC4=CC(=O)C=C[C@]4(C)[C@H]3[C@@H](O)C[C@@]21C [NCGC00016856-01] | 0.52 | 77.5 | 0.00311 µM | −8.507 |  | 
CC(=O)CC(=O)[C@@]1(O)CC[C@@H]2[C@@H]3C=C(C)C4=CC(=O)CC[C@@H]4[C@H]3CC[C@]21C [NCGC00016884-01] | 0.57 | 15.6 |  |  |  | 
CCOC(=O)O[C@]1(C(=O)COC(=O)CC)CC[C@H]2[C@@H]3CCC4=CC(=O)C=C[C@]4(C)[C@H]3[C@@H](O)C[C@@]21C [NCGC00016926-01] | 0.96 | 30.2 | 0.00944 µM | −8.025 |  | 
CCC(=O)O[C@]1(C(=O)SCF)[C@H](C)C[C@H]2[C@@H]3C[C@H](F)C4=CC(=O)C=C[C@]4(C)[C@@]3(F)[C@@H](O)C[C@@]21C [NCGC00016943-01] | 1.50 | 115.3 |  |  |  | 
CC1(C)O[C@@H]2C[C@H]3[C@@H]4C[C@H](F)C5=CC(=O)C=C[C@]5(C)[C@H]4[C@@H](O)C[C@]3(C)[C@]2(C(=O)CO)O1 [NCGC00016983-01] | 0.57 | 97.1 | 0.00485 µM | −8.315 |  | 
